Experimental data: patent US10351883B2, “Compounds for increasing lipid synthesis and storage” (NUtech Ventures, priority 2015, dated 2019)
Where two headings read alike, the source gives them in different places.

Test system: Chlamydomonas reinhardtii
Test: 8-point dose response assay (0.25-30 μM)
Assay type: cell-based
Design: reference not given here
Settings: for Dose Response Assay 0.25 μM: 0.25 μM compound; for Dose Response Assay 0.625 μM: 0.625 μM compound; for Dose Response Assay 2.5 μM: 2.5 μM compound; for Dose Response Assay 5 μM: 5 μM compound; for Dose Response Assay 10 μM: 10 μM compound; for Dose Response Assay 15 μM: 15 μM compound; for Dose Response Assay 30 μM: 30 μM compound
Procedure: A large scale in vivo high throughput screen (HTS) was performed to identify small compounds that stimulate lipid production and accumulation using the model organism Chlamydomonas reinhardtii. The HTS employed a 384-well microplate format in which cells were allowed to grow in the presence of the test compounds at 10 μM final concentration for 72 hours.
The screening library included 43,736 compounds (ChemBridge, Corp). […] A sub-set of compounds were retested using an 8-point dose response assay (0.25-30 μM). Compounds were further assessed visually using a Nikon Ti-inverted microscope (60×) to reconfirm lipid droplet accumulation was induced.

[1] = 8-point dose response, Nile Red lipid accumulation
[2] = 1.25 μM compound, 8-point dose response, Nile Red lipid accumulation

Row | SMILES | Dose Response Assay 0.25 μM [1] | Dose Response Assay 0.625 μM [1] | Dose Response Assay 1.25 μM [2] | Dose Response Assay 2.5 μM [1] | Dose Response Assay 5 μM [1] | Dose Response Assay 10 μM [1] | Dose Response Assay 15 μM [1] | Dose Response Assay 30 μM [1] | Dose Response Assay 1.25 μM
1 | Cc1ccc(S(=O)(=O)c2ccc(-c3ccc([N+](=O)[O-])cc3)cc2)cc1 [Compound 2] | 0.96 | 1.01 | 0.94 | 0.99 | 1.1 | 1.53 | 1.34 | 2.11 | 
2 | Cc1cccc(N2CCN(Cc3ccc([N+](=O)[O-])cc3)CC2)c1C [Compound 5] | 0.97 | 0.85 | 0.80 | 0.91 | 1.28 | 2.07 | 1.96 | 2.81 | 
3 | O=C(Nc1ccc([N+](=O)[O-])cc1)c1ccccc1Cl [Compound 11] | 1.02 | 1.12 | 0.97 | 0.93 | 1.46 | 2.78 | 2.28 | 1.78 | 
4 | Cc1c(C(=O)Nc2ccc(F)c(F)c2)cccc1[N+](=O)[O-] [Compound 17] | 1.09 | 1.03 | 0.89 | 0.89 | 1.07 | 0.92 | 1.04 | 1.67 | 
5 | CC(=O)Nc1ccc(S(=O)(=O)Nc2cc([N+](=O)[O-])ccc2C)cc1 [Compound 18] | 1.01 | 0.97 | 0.89 | 1.13 | 1.17 | 1.19 | 1.31 | 1.29 | 
6 | CC(=O)c1nc2cc([N+](=O)[O-])ccc2n1Cc1ccccc1 [Compound 23] | 1.02 | 1 | 0.79 | 0.78 | 1.04 | 1.1 | 1.43 | 1.15 | 
7 | COc1ccc(C(=O)NCCN2CCOCC2)cc1[N+](=O)[O-] [Compound 24] | 1.13 | 0.87 | 0.84 | 0.97 | 0.99 | 1.18 | 1.19 | 1.25 | 
8 | C=CCn1c(SCC(=O)O)nnc1-c1ccc([N+](=O)[O-])cc1 [Compound 25] | 1.15 | 1.13 | 0.99 | 1.02 | 1 | 1 | 1.33 | 1.34 | 
9 | Cc1ccsc1C=C(C#N)c1nc(-c2ccc([N+](=O)[O-])cc2)cs1 [Compound 30] | 1.15 | 1.05 | 1.16 | 0.84 | 0.99 | 0.82 | 1.37 | 1.73 | 
10 | Cc1cc(C)c(NC(=O)COc2ccccc2[N+](=O)[O-])c(C)c1 [Compound 35] | 1.09 | 1.49 | 1.23 | 1.96 | 1.91 | 2.65 | 2.5 | 2.51 | 
11 | O=C(Nc1ccc(Cc2ccncc2)cc1)c1ccc([N+](=O)[O-])cc1Cl [Compound 37] | 1.04 | 0.97 | 1.39 | 1.85 | 1.93 | 1.76 | 1.16 | 1.15 | 
12 | O=C(Nc1ccc([N+](=O)[O-])cc1)c1cccc(Cl)c1Cl [Compound 38] | 1.06 | 1.38 | 1.23 | 2.23 | 2.64 | 2.94 | 2.61 | 2 | 
13 | O=[N+]([O-])c1ccccc1CN1CCN(CC2CC3C=CC2C3)CC1 (stereo not drawn) [Compound 39] | 1.17 | 1.13 | 0.99 | 1.18 | 1.18 | 0.88 | 1.57 | 1.38 | 
14 | COc1ccc(C(=O)c2ccc(N3CCN(C)CC3)c([N+](=O)[O-])c2)cc1 [Compound 45] | 0.93 | 0.99 | 1.57 | 2.3 | 3.61 | 2.02 | 2.06 | 1.56 | 
15 | Cc1ccc(C(=O)c2ccc(N3CCN(C)CC3)c([N+](=O)[O-])c2)cc1 [Compound 46] | 1.23 | 0.96 | 0.94 | 1.61 | 2.31 | 2.75 | 2.63 | 1.78 | 
16 | Cc1c(NC(=O)COc2ccc(Br)cc2)cccc1[N+](=O)[O-] [Compound 47] | 0.90 | 0.81 | 0.91 | 1.3 | 0.95 | 1.37 | 1.27 | 1.19 | 
17 | O=C(Nc1ccccc1C(=O)NCc1ccccc1)c1ccc([N+](=O)[O-])cc1 [Compound 53] | 1.06 | 1.38 | 1.13 | 1.1 | 1.42 | 1.57 | 1.61 | 2.49 | 
18 | Cc1ccc(C(=O)Nc2ccccc2C(=O)NC(C)C)cc1[N+](=O)[O-] [Compound 54] | 1.05 | 1.53 | 2.13 | 2.32 | 2.79 | 1.73 | 1.78 | 1.58 | 
19 | Cc1c(C(=O)Nc2ccccc2C(=O)NCc2ccccc2)cccc1[N+](=O)[O-] [Compound 55] | 1.3 | 1.77 | 2.01 | 2.27 | 2.23 | 2.04 | 2.26 | 2.77 | 
20 | O=C(Nc1ccc([N+](=O)[O-])cc1)c1c(F)c(F)c(F)c(F)c1F [Compound 56] | 1.2 | 1.2 | 1.34 | 1.8 | 2.58 | 2.71 | 1.74 | 1.92 | 
21 | CCC1CCCCN1C(=O)c1ccc(Cl)cc1[N+](=O)[O-] (stereo not drawn) [Compound 57] | 0.99 | 1.06 | 1.01 | 0.90 | 1.28 | 1.11 | 1.15 | 1.87 | 
22 | O=C1CC(N2CCc3ccccc3C2)C(=O)N1c1ccc([N+](=O)[O-])cc1 (stereo not drawn) [Compound 58] | 1.06 | 0.94 | 1.14 | 0.90 | 1.22 | 1.15 | 1.42 | 1.56 | 
23 | CCOc1c(Cl)cc(C(=O)Nc2cccc([N+](=O)[O-])c2)cc1Cl [Compound 61] | 0.90 | 0.96 | 0.92 | 0.95 | 1.04 | 0.91 | 1.24 | 1.14 | 
24 | COc1ccccc1N1CCN(Cc2ccc(Cl)cc2)CC1 [Compound 68] | 1.07 | 1.05 |  | 2.15 | 2.1 | 1.95 | 2.74 | 2.03 | 1.28
